Values joined by “and” are separate entries in the source; they are usually repeats but may differ in a detail not shown here. Identical values can stand only once.
Experiments:
[1] = SGLU1 multiple dose toxicology in vivo; set-up: species or system mice
Method: Further studies were performed to determine the dose-limiting toxicity associated with the administration of repeated doses in groups of mice. Tables 11–16 below describe the results of the multiple-dose toxicology studies for MER-1 and Tables 17–21 describe results of the multiple-dose toxicology of SGLU-1.
The results of the SGLU-1 Multiple Dose I.V. are summarized as follows: Five mice/sex were administered 5 daily intravenous injections of SGLU via the tail vein at doses of 50, 100, 150, 200, 250, 300, and 350 mg/kg/day. All surviving mice were held for 28 days, sacrificed, and designated tissues collected, formalin fixed, and examined.

[2] = pH 5
[3] = system: panel of 60 tumor cell lines; format: cell-based, human
[4] = system: U937/PR9 cells; format: cell-based, human
[5] = system: mitochondrial membrane potential; format: cell-based, human
[6] = 5 daily IV injections, 50–350 mg/kg/day

**Q.** With `C[As](C)SC[C@H](NC(=O)CC[C@H](N)C(=O)O)C(=O)NCC(=O)O` [SGLU1, S-(dimethylarsino) glutathione] as the molecule, how does the “Kidney: Congestion, incidence” value ([1]; 300 mg/kg/day, F) read?
**A.** 1/5

**Q.** And the “Liver: Hepatocyte hypertrophy: Centrilobular (compatible with SER), incidence” value (“Liver … (compatible with SER), incidence” below) ([1]; 300 mg/kg/day, F)?
**A.** 2/5

**Q.** And the “Liver: Hepatocyte hypertrophy: Panlobular w/eosinophilia, incidence” value ([1]; 300 mg/kg/day, F)?
**A.** 1/5

**Q.** And the “Liver: Pyogranuloma, focal, incidence” value ([1]; 300 mg/kg/day, F)?
**A.** 1/5

**Q.** What about the “Lung: Atelectasis, incidence” value ([1]; 300 mg/kg/day, F) of the same molecule?
**A.** 1/5

**Q.** What about the “Lung: Congestion, incidence” value ([1]; 300 mg/kg/day, F) of the same molecule?
**A.** 3/5

**Q.** What about the “Lung: Vasculitis, incidence” value ([1]; 300 mg/kg/day, F) of the same molecule?
**A.** 1/5

**Q.** And the “Number of animals/dose that tolerated 1 dose” value ([1]; 300 mg/kg/day, F)?
**A.** 1/5

**Q.** What about the “Number of animals/dose that tolerated 2 doses” value ([1]; 300 mg/kg/day, F) of the same molecule?
**A.** 2/5

**Q.** What about the “Number of animals/dose that tolerated 5 doses” value ([1]; 300 mg/kg/day, F) of the same molecule?
**A.** 2/5

**Q.** And the “Tail: Acute necrosis with vasculitis, thrombosis, and hemorrhage, incidence” value (from here on “Tail: Acute necrosis with vasculitis”) ([1]; 300 mg/kg/day, F)?
**A.** 1/5

**Q.** What about the “Body Weights Avg.” value ([1]; 300 mg/kg/day, Female) of the same molecule?
**A.** 24 grams

**Q.** And the “Epididymus: Oligospermia, incidence” value ([1]; 300 mg/kg/day, M)?
**A.** 2/5

**Q.** And the “Heart: Medial hyprtrophy, coronary artery, incidence” value ([1]; 300 mg/kg/day, M)?
**A.** 1/5

**Q.** What about the “Liver … (compatible with SER), incidence” value ([1]; 300 mg/kg/day, M) of the same molecule?
**A.** 4/5

**Q.** And the “Liver: Pyogranuloma, focal, incidence” value ([1]; 300 mg/kg/day, M)?
**A.** 2/5

**Q.** What about the “Lung: Congestion, incidence” value ([1]; 300 mg/kg/day, M) of the same molecule?
**A.** 1/5

**Q.** What about the “Number of animals/dose that tolerated 1 dose” value ([1]; 300 mg/kg/day, M) of the same molecule?
**A.** 3/5

**Q.** What about the “Number of animals/dose that tolerated 5 doses” value ([1]; 300 mg/kg/day, M) of the same molecule?
**A.** 2/5

**Q.** And the “Tail: Acute necrosis with vasculitis” value ([1]; 300 mg/kg/day, M)?
**A.** 1/5

**Q.** And the “Tail: Ulcerative dermatitis, incidence” value ([1]; 300 mg/kg/day, M)?
**A.** 1/5

**Q.** What about the “Testes: Seminiferous tubular degeneration, incidence” value ([1]; 300 mg/kg/day, M) of the same molecule?
**A.** 2/5

**Q.** And the “Body Weights Avg.” value ([1]; 300 mg/kg/day, Male)?
**A.** 23 grams

**Q.** And the “Clinical Signs” value ([1]; 350 mg/kg/day IV daily x5)?
**A.** Moderate decr. activity and 2 M tail necr.: amputate

**Q.** And the “Kidney: Murine progressive glomerulonephropathy, incidence” value ([1]; 350 mg/kg/day, F)?
**A.** 1/5

**Q.** What about the “Liver: Hepatocyte hypertrophy: Periportal w/vacuolation, incidence” value ([1]; 350 mg/kg/day, F) of the same molecule?
**A.** 2/5

**Q.** And the “Liver: Inflammation, portal, incidence” value ([1]; 350 mg/kg/day, F)?
**A.** 1/5

**Q.** And the “Lung: Congestion, incidence” value ([1]; 350 mg/kg/day, F)?
**A.** 2/5

**Q.** And the “Lung: Fibrin Thrombi, incidence” value ([1]; 350 mg/kg/day, F)?
**A.** 1/5

**Q.** And the “Lung: Vasculitis, incidence” value ([1]; 350 mg/kg/day, F)?
**A.** 1/5

**Q.** What about the “Mandibular L. N.: Apoptosis, lymphocyte, incidence” value ([1]; 350 mg/kg/day, F) of the same molecule?
**A.** 1/5

**Q.** What about the “Number of animals/dose that tolerated 1 dose” value ([1]; 350 mg/kg/day, F) of the same molecule?
**A.** 4/5

**Q.** And the “Number of animals/dose that tolerated 2 doses” value ([1]; 350 mg/kg/day, F)?
**A.** 1/5

**Q.** And the “Spleen: Congestion, incidence” value ([1]; 350 mg/kg/day, F)?
**A.** 5/5

**Q.** And the “Thymus: Apoptosis, increased, incidence” value ([1]; 350 mg/kg/day, F)?
**A.** 5/5

**Q.** What about the “Body Weights Avg.” value ([1]; 350 mg/kg/day, Female) of the same molecule?
**A.** 24 grams

**Q.** What about the “Bone Marrow: Myeloid hyperplasia, incidence” value ([1]; 350 mg/kg/day, M) of the same molecule?
**A.** 1/5

**Q.** And the “Epididymus: Oligospermia, incidence” value ([1]; 350 mg/kg/day, M)?
**A.** 5/5

**Q.** And the “Kidney: Congestion, incidence” value ([1]; 350 mg/kg/day, M)?
**A.** 1/5

**Q.** What about the “Kidney: Inflammation, focal, incidence” value ([1]; 350 mg/kg/day, M) of the same molecule?
**A.** 1/5

**Q.** What about the “Liver … (compatible with SER), incidence” value ([1]; 350 mg/kg/day, M) of the same molecule?
**A.** 1/5

**Q.** And the “Liver: Increased mitoses, incidence” value ([1]; 350 mg/kg/day, M)?
**A.** 1/5

**Q.** What about the “Liver: Pyogranuloma, focal, incidence” value ([1]; 350 mg/kg/day, M) of the same molecule?
**A.** 2/5

**Q.** What about the “Lung: Fibrin Thrombi, incidence” value ([1]; 350 mg/kg/day, M) of the same molecule?
**A.** 1/5

**Q.** And the “Lung: Hemorrhage, focal, incidence” value ([1]; 350 mg/kg/day, M)?
**A.** 2/5

**Q.** What about the “Number of animals/dose that tolerated 1 dose” value ([1]; 350 mg/kg/day, M) of the same molecule?
**A.** 3/5

**Q.** And the “Number of animals/dose that tolerated 5 doses” value ([1]; 350 mg/kg/day, M)?
**A.** 2/5

**Q.** And the “Spleen: Congestion, incidence” value ([1]; 350 mg/kg/day, M)?
**A.** 2/5

**Q.** And the “Spleen: Extramedullary hematopoiesis, increased, incidence” value ([1]; 350 mg/kg/day, M)?
**A.** 1/5

**Q.** And the “Tail: Acute necrosis with vasculitis” value ([1]; 350 mg/kg/day, M)?
**A.** 1/5

**Q.** What about the “Testes: Seminiferous tubular degeneration, incidence” value ([1]; 350 mg/kg/day, M) of the same molecule?
**A.** 5/5

**Q.** And the “Thymus: Apoptosis, increased, incidence” value ([1]; 350 mg/kg/day, M)?
**A.** 2/5

**Q.** What about the “Body Weights Avg.” value ([1]; 350 mg/kg/day, Male) of the same molecule?
**A.** 20 grams

**Q.** And the “deaths (summary)” value [1, 6]?
**A.** Deaths occurred at 250, 300, and 350 mg/kg/day with female mice being more susceptible than males

**Q.** What about the “microscopic observations (summary)” value [1, 6] of the same molecule?
**A.** compound-related lesions in lung, liver, thymus, and testes

**Q.** And the “Deaths, number of animals/dose” value ([1]; 5 daily IV injections, F, 50 mg/kg/day)?
**A.** 0/5

**Q.** And the “Deaths, number of animals/dose” value ([1]; 5 daily IV injections, F, 150 mg/kg/day)?
**A.** 0/5

**Q.** What about the “Deaths, number of animals/dose” value ([1]; 5 daily IV injections, F, 200 mg/kg/day) of the same molecule?
**A.** 0/5

**Q.** And the “Deaths, number of animals/dose” value ([1]; 5 daily IV injections, F, 250 mg/kg/day)?
**A.** 1/5

**Q.** And the “Deaths, number of animals/dose” value ([1]; 5 daily IV injections, F, 300 mg/kg/day)?
**A.** 3/5

**Q.** And the “Deaths, number of animals/dose” value ([1]; 5 daily IV injections, F, 350 mg/kg/day)?
**A.** 5/5

**Q.** And the “Deaths, number of animals/dose” value ([1]; 5 daily IV injections, M, 50 mg/kg/day)?
**A.** 0/5

**Q.** And the “Deaths, number of animals/dose” value ([1]; 5 daily IV injections, M, 100 mg/kg/day)?
**A.** 0/5

**Q.** What about the “Deaths, number of animals/dose” value ([1]; 5 daily IV injections, M, 150 mg/kg/day) of the same molecule?
**A.** 0/5

**Q.** What about the “Deaths, number of animals/dose” value ([1]; 5 daily IV injections, M, 200 mg/kg/day) of the same molecule?
**A.** 0/5

**Q.** And the “Deaths, number of animals/dose” value ([1]; 5 daily IV injections, M, 250 mg/kg/day)?
**A.** 0/5

**Q.** And the “Deaths, number of animals/dose” value ([1]; 5 daily IV injections, M, 300 mg/kg/day)?
**A.** 1/5

**Q.** And the “Deaths, number of animals/dose” value ([1]; 5 daily IV injections, M, 350 mg/kg/day)?
**A.** 3/5

**Q.** What about the no-observable-effect level ([1]; 5 daily IV injections, female mice) of the same molecule?
**A.** 150 mg/kg

**Q.** What about the “centrilobular hypertrophy of hepatocytes, incidence” value ([1]; 5 daily IV injections, female mice, 200 mg/kg/day) of the same molecule?
**A.** 1/5

**Q.** What about the “no-observable-effect level (NOEL)” value ([1]; 5 daily IV injections, male mice) of the same molecule?
**A.** 100 mg/kg/day

**Q.** And the “testicular seminiferous tubular degeneration, incidence” value ([1]; 5 daily IV injections, males, 150 mg/kg/day)?
**A.** 1/5

**Q.** And the loss [2]?
**A.** Less than 10%

**Q.** What about the “anticancer activity, NIH panel” value [3] of the same molecule?
**A.** showed evidence of activity at low concentrations against a variety of tumor cell lines

**Q.** And the “influence of functional PML/RARalpha gene on sensitivity” value [4]?
**A.** no influence on the sensitivity of the cells

**Q.** And the “change of the potential of mitochondrial membrane (CMXRos staining)” value [5]?
**A.** involves change of the potential of mitochondrial membrane
